Measured values taken from article PMC12368656 (2025).

How the values were obtained:
[1] = test system: 3′-methylene blue- and 5′-thiol-modified oligonucleotide with affinity toward vancomycin (aptamer probe) (DNA, aptamer) CGAGGGTACCGCAATAGTACTTATTGTTCGCCTATTGTGGGTCGG; assay: electrochemical aptamer-based sensor, SWV titration, planar gold electrode; conditions: Na+ (0.5 wt % NaCl); artificial sweat (0.1 wt % urea, 0.1 wt % lactic acid), pH 6.5, room temperature; apparent
[2] = test system: 3′-methylene blue- and 5′-thiol-modified oligonucleotide with affinity toward vancomycin (aptamer probe) (DNA, aptamer) CGAGGGTACCGCAATAGTACTTATTGTTCGCCTATTGTGGGTCGG; assay: electrochemical aptamer-based sensor, SWV titration, gold-coated microstructured electrode (MSE); conditions: Na+ (0.5 wt % NaCl); artificial sweat (0.1 wt % urea, 0.1 wt % lactic acid), pH 6.5, room temperature; apparent

KD [1]: 26.3 ± 3.3 µM
KD [2]: 46.6 ± 4.1 µM
Compound: CN[C@H](CC(C)C)C(=O)N[C@H]1C(=O)N[C@@H](CC(N)=O)C(=O)N[C@H]2C(=O)N[C@H]3C(=O)N[C@H](C(=O)N[C@H](C(=O)O)c4cc(O)cc(O)c4-c4cc3ccc4O)[C@H](O)c3ccc(c(Cl)c3)Oc3cc2cc(c3O[C@@H]2O[C@H](CO)[C@@H](O)[C@H](O)[C@H]2O[C@H]2C[C@](C)(N)[C@H](O)[C@H](C)O2)Oc2ccc(cc2Cl)[C@H]1O
